Like-named read-outs stand apart in the source and are kept apart here.
Assays:
[1] = MTT cytotoxicity assay, normal hepatocyte HL-7702; format: cell-based; details: HL-7702 cells (normal hepatocyte cell line), normal human hepatocyte cell line, drug exposure 48 h, mean ± SD (n = 3), read-out: Cytotoxic activity (IC50) HL-7702
Experimental: (§1) Cytotoxicity of the podophyllum derivatives were determined by reading the absorbance at 492 nm on a multiplate reader (Thermo Fisher Scientific, Multiskan MK3). Cell cycle analysis and apoptosis analysis were analyzed by flow cytometry (Accuri C6, BD). Immunofluorescence images were recorded using laser scanning microscope (Perkin-Elmer & Olympus, UltraView VoX & Ix81). The gel for the decatenation of kDNA by Topoisomerase II study was photographed with UV illumination, Tanon 1600 (Tanon Science & Technology Co., Ltd., Shanghai). The nitrocellulose blotting membrane for western blot analysis was visualized using X-ray film processor and X-ray film, Fujifilm SUPER RX-N-C.
(§2) Cytotoxicity assay was performed on human lung adenocarcinoma epithelial cell line (A549), henrietta lacks strain of cancer cells (HeLa), human gastric carcinoma cell line (BGC 823), and normal human hepatocyte cell line (HL-7702). Cells (3500–13,000) in a 100 μL culture medium per well were seeded into 96-well microtest plates (Falcon, CA). A549 cell lines, HeLa cell lines and HL-7702 cell lines were cultured in DMEM supplemented with 10% CS, 100 mg/L penicillin G, 100 mg/L streptomycin. BGC 823 cell lines were cultured in RPMI medium 1640 supplemented with 10% CS, 100 mg/L penicillin G, and 100 mg/L streptomycin. The cells were incubated at 37 °C, in a humidified atmosphere with 5% CO2 for 48 h. For all cell lines, the microculture tetrazolium [3-(4, 5-dimethylthiazol-2-yl)-2, 5-diphenyltetrazolium bromide, MTT; Sigma, St. Louis, MO] assay was performed to measure the cytotoxic effects. Drug stock solutions (the each drug concentration was 0.5, 1, 10, 20, 50, 100, 200, and 500 μM, respectively) were prepared in DMSO and the final solvent concentration was ≤ 2% DMSO (v/v), a concentration without effect on cell replication. Initial seeding densities varied among the cell lines to ensure a final absorbance reading in control (untreated) cultures in the range 0.6–0.8 A492 units. Drug exposure was for 2 days, and the IC50 value, the drug concentration that reduced the absorbance by 50%, was interpolated from dose-response data. Each test was performed in triplicate, and absorbance readings varied no more than 5%. Data presented as means ± standard deviation (SD). Statistical analyses were performed by the analysis of variance (ANOVA). All statistical analyses were performed using Origin version 8.0 ([…], OriginLab Corp., Northampton, MA, USA). Sigmoidal dose responses and non-linear regression analyses were undertaken to identify half-maximal concentrations for each of the drugs. To evaluate differences in IC50 concentrations, analysis of variance combined with Tukey’s multiple range test was used.

A549 cells = assay: MTT cytotoxicity assay, A549; format: cell-based, human; details: MTT, drug exposure 48 h, mean ± SD (n = 3), read-out: Cytotoxic activity (IC50) A549
Experimental: as §1, §2

HeLa cells [2] = assay: MTT cytotoxicity assay, HeLa; format: cell-based, human; details: Homo sapiens, HeLa; MTT, drug exposure 48 h, mean ± SD (n = 3); read-out: Cytotoxic activity (IC50) HeLa
Experimental: as §1, §2

BGC-823 cells = assay: MTT cytotoxicity assay, BGC-823; format: cell-based, human; details: Homo sapiens, BGC-823; MTT, drug exposure 48 h, mean ± SD (n = 3); read-out: Cytotoxic activity (IC50) BGC-823
Experimental: as §1, §2

HeLa cells [3] = assay: Western blot of apoptosis pathway proteins in HeLa cells; format: cell-based, human; details: 1 μM, 0-48 h
Experimental: Cells were lysed by adding 100 μL of RIPA buffer (50 mM Tris, pH 8.0, 150 mM NaCl, 1% TX-100, 0.5% sodium deoxycholate, 0.1% SDS) with 1% Protease Inhibitor PMSF. Each sample was then vigorously vortexed twice for 15 seconds, with a 30-minute incubation on ice following each agitation. The cellular debris was pelleted (12,000 rpm, 10 min), and then 100 μL of the protein suspension was transferred to fresh 0.5 mL tubes. The protein levels were quantified using a standard BCA (Thermo Scientific), after which the samples were diluted with deionized water to achieve equal protein concentrations for all samples. Prior to analyzing the samples, 5 × Loading buffer (350 mM Tris, pH 6.8, 12% SDS, 0.012% bromophenol blue, 47% glycerol) with 5% β-mercaptoethanol was added to each sample to achieve a final 1 × concentration, after which the samples were incubated at 95 °C for 10 minutes to denature the protein samples. 20–30 μg of protein was added to and run on a 15-well 4–20% Tris-HCl gel. The gel was equilibrated buffer (39 mM glycine, 48 mM, 0.037 g/L SDS, 200 mL/L methanol) for 5 minutes, then the protein were transferred to a PVDF membrane, which was incubated with 5% fetal bovine serum in TBST (20 mM Tris-HCl, pH 8.0, 150 mM, 0.5 mL/L Tween-20) for 1 h to block non-specific binding, and then probed for the primary antibody at a 1:1000 dilution with a blocking agent in TBST for 1 h at room temperature. The blot was washed with TBST, and then probed with a secondary antibody in TBST for 1 hour at room temperature. The blot was washed with TBST, and then The ECL detection kit (Millipore) was added to catalyze oxidation of luminol to emit chemiluminescence, and the membrane was visualized using X-ray film processor and X-ray film (Fujifilm SUPER RX-N-C).

SMILES	IC50 at 48 h [1] [µM]	IC50 (A549 cells; Homo sapiens, A549, 48 h) [µM]	IC50 (HeLa cells [2]) [µM]	IC50 (BGC-823 cells) [µM]	activation of ATM, ATR, caspase-8, 9 and 3 (HeLa cells [3])	IC50 (A549 cells) [µM]
COc1cc([C@@H]2c3cc4c(cc3[C@@H](Nc3nncs3)[C@H]3COC(=O)[C@H]23)OCO4)cc(OC)c1O [2′N, 4β-NH-(1,3,4-thiodizole-2)-4-deoxy-4′-demethyl-podophyllotoxin]	28.7 ± 1.31	2.22 ± 0.31	10.3 ± 0.41	15.4 ± 0.63	–	–
COc1cc([C@@H]2c3cc4c(cc3[C@@H](Nc3ccccn3)[C@H]3COC(=O)[C@H]23)OCO4)cc(OC)c1O [3′N, 4β-NH-(pyridine-2)-4-deoxy-4′-demethyl-podophyllotoxin]	122 ± 5.88	122 ± 4.6	96.5 ± 7.64	111 ± 3.55	–	–
COc1cc([C@@H]2c3cc4c(cc3[C@@H](Nc3ncccn3)[C@H]3COC(=O)[C@H]23)OCO4)cc(OC)c1O [4′N, 4β-NH-(pyrimidine-2)-4-deoxy-4′-demethyl-podophyllotoxin]	41.8 ± 1.75	70.4 ± 3.92	44.4 ± 2.37	64.2 ± 4.43	–	–
COc1cc([C@@H]2c3cc4c(cc3[C@@H](Sc3ncccn3)[C@H]3COC(=O)[C@H]23)OCO4)cc(OC)c1O [4′S, 4β-S-(pyrimidine-2)-4-deoxy-4′-demethyl-podophyllotoxin]	140 ± 3.82	14 ± 1.66	12.92 ± 0.08	11.2 ± 0.35	–	–
COc1cc([C@@H]2c3cc4c(cc3[C@@H](Nc3nc5ccccc5s3)[C@H]3COC(=O)[C@H]23)OCO4)cc(OC)c1O [5′N, 4β-NH-(benzothiazole-2)-4-deoxy-4′-demethyl-podophyllotoxin]	18.6 ± 1.48	14.2 ± 0.43	5.65 ± 0.11	10.5 ± 0.45	–	–
COc1cc([C@@H]2c3cc4c(cc3[C@@H](Sc3nc5ccccc5s3)[C@H]3COC(=O)[C@H]23)OCO4)cc(OC)c1O [5′S, 4β-S-(benzothiazole-2)-4-deoxy-4′-demethyl-podophyllotoxin]	98.5 ± 3.51	8.25 ± 0.83	1.71 ± 0.07	1.87 ± 0.36	–	–
COc1cc([C@@H]2c3cc4c(cc3[C@@H](Nc3ncnc5nc[nH]c35)[C@H]3COC(=O)[C@H]23)OCO4)cc(OC)c1O [6′N, 4β-NH-(purine-6)-4-deoxy-4′-demethylepipodophyllotoxin]	19.2 ± 1.31	15.7 ± 1.61	20.5 ± 0.38	43.2 ± 1.36	–	–
COc1cc([C@@H]2c3cc4c(cc3[C@@H](Sc3ncnc5nc[nH]c35)[C@H]3COC(=O)[C@H]23)OCO4)cc(OC)c1O [6′S, 4β-S-(purine-6)-4-deoxy-4′-demethyl-podophyllotoxin]	27.5 ± 2.35	7.45 ± 0.18	10.3 ± 0.41	45 ± 3.68	–	–
COc1cc([C@@H]2c3cc4c(cc3[C@@H](Nc3nc[nH]n3)[C@H]3COC(=O)[C@H]23)OCO4)cc(OC)c1O [Compound 1′N, 4β-NH-(1,2,4-trizole-3)-4-deoxy-4′-demethyl-podophyllotoxin]	38.6 ± 2.52	4.22 ± 0.43	4.36 ± 0.42	15.6 ± 0.41	significantly weaker signal	–
COc1cc([C@@H]2c3cc4c(cc3[C@@H](Nc3nncs3)[C@H]3COC(=O)[C@H]23)OCO4)cc(OC)c1OC [Compound 2N, 4β-NH-(1,3,4-thiodiazole-2)-4-deoxy-podophyllotoxin]	18.7 ± 3.19	12.5 ± 0.55	6.33 ± 0.36	2.33 ± 0.24	–	–
COc1cc([C@@H]2c3cc4c(cc3[C@@H](Sc3nncs3)[C@H]3COC(=O)[C@H]23)OCO4)cc(OC)c1OC [Compound 2S]	36.2 ± 3.81	1.26 ± 0.1	1.25 ± 0.36	0.31 ± 0.02	–	–
COc1cc([C@@H]2c3cc4c(cc3[C@@H](Nc3ccccn3)[C@H]3COC(=O)[C@H]23)OCO4)cc(OC)c1OC [Compound 3N, 4β-NH-(pyridine-2)-4-deoxy-podophyllotoxin]	28.2 ± 2.58	28.2 ± 2.58	13.7 ± 2.13	14.3 ± 3.22	–	–
COc1cc([C@@H]2c3cc4c(cc3[C@@H](Sc3ccccn3)[C@H]3COC(=O)[C@H]23)OCO4)cc(OC)c1OC [Compound 3S, 4β-S-(pyridine-2)-4-deoxy-podophyllotoxin]	89.7 ± 2.45	19.1 ± 1.52	0.9 ± 0.03	1.09 ± 0.06	–	–
COc1cc([C@@H]2c3cc4c(cc3[C@@H](Nc3ncccn3)[C@H]3COC(=O)[C@H]23)OCO4)cc(OC)c1OC [Compound 4N, 4β-NH-(pyrimidine-2)-4-deoxy-podophyllotoxin]	47.3 ± 2.71	59.6 ± 3.48	26.4 ± 1.52	63.6 ± 3.77	–	–
COc1cc([C@@H]2c3cc4c(cc3[C@@H](Sc3ncccn3)[C@H]3COC(=O)[C@H]23)OCO4)cc(OC)c1OC [Compound 4S, 4β-S-(pyrimidine-2)-4-deoxy-podophyllotoxin]	51.1 ± 3.17	2.4 ± 0.76	3.64 ± 0.46	0.49 ± 0.01	–	–
COc1cc([C@@H]2c3cc4c(cc3[C@@H](Nc3nc5ccccc5s3)[C@H]3COC(=O)[C@H]23)OCO4)cc(OC)c1OC [Compound 5N]	5.33 ± 0.14	15.2 ± 0.43	2.32 ± 0.28	13.2 ± 0.86	–	–
COc1cc([C@@H]2c3cc4c(cc3[C@@H](Sc3nc5ccccc5s3)[C@H]3COC(=O)[C@H]23)OCO4)cc(OC)c1OC [Compound 5S, 4β-S-(benzothiazole-2)-4-deoxy-podophyllotoxin]	31.8 ± 1.62	11.1 ± 1.71	0.97 ± 0.12	1.04 ± 0.13	–	–
COc1cc([C@@H]2c3cc4c(cc3[C@@H](Nc3ncnc5nc[nH]c35)[C@H]3COC(=O)[C@H]23)OCO4)cc(OC)c1OC [Compound 6N]	13.6 ± 1.26	3.72 ± 0.11	5.85 ± 0.36	12.5 ± 1.35	–	–
COc1cc([C@@H]2c3cc4c(cc3[C@@H](Sc3ncnc5nc[nH]c35)[C@H]3COC(=O)[C@H]23)OCO4)cc(OC)c1OC [Compound 6S, 4β-S-(purine-6)-4-deoxy-podophyllotoxin]	20.6 ± 1.38	0.57 ± 0.22	1.21 ± 0.13	11.3 ± 1.71	–	–
COc1cc([C@@H]2c3cc4c(cc3[C@@H](O[C@@H]3O[C@@H]5CO[C@@H](C)O[C@H]5[C@H](O)[C@H]3O)[C@H]3COC(=O)[C@H]23)OCO4)cc(OC)c1O [etoposide, reference compound]	24.6 ± 3.82	–	59.4 ± 2.45	20.5 ± 2.55	–	20.1 ± 1.95
